In ChEMBL document CHEMBL5724914, “Linking interpersonal differences in gut microbiota composition and drug biotransformation activity” (2024):

conditions: human gut metagenome, 24 h, 2 µM
Also: call rule not given here.

Row | SMILES | Bacterial Biotransformation
1 | CCN(CC)C(C)CN1c2ccccc2Sc2ccccc21 (stereo not given) [ETHOPROPAZINE] | Compound metabolized
2 | C=CCN1CC[C@]23c4c5ccc(O)c4O[C@H]2C(=O)CC[C@@]3(O)[C@H]1C5 [NALOXONE] | Compound NOT metabolized
3 | CCN(CC)CC#CCOC(=O)C(O)(c1ccccc1)C1CCCCC1.Cl (stereo not given) [OXYBUTYNIN CHLORIDE] | Compound metabolized

conditions: human gut metagenome, 24 h, 2 µM; remark: another data set of the same source

Row | SMILES | Bacterial Biotransformation
4 | CCN(CC)C(C)CN1c2ccccc2Sc2ccccc21 (stereo not given) [ETHOPROPAZINE] | Compound metabolized
5 | C=CCN1CC[C@]23c4c5ccc(O)c4O[C@H]2C(=O)CC[C@@]3(O)[C@H]1C5 [NALOXONE] | Compound NOT metabolized
6 | CCN(CC)CC#CCOC(=O)C(O)(c1ccccc1)C1CCCCC1.Cl (stereo not given) [OXYBUTYNIN CHLORIDE] | Compound metabolized

conditions: human gut metagenome, 24 h, 2 µM; remark: another data set of the same source

Row | SMILES | Bacterial Biotransformation
7 | CCN(CC)C(C)CN1c2ccccc2Sc2ccccc21 (stereo not given) [ETHOPROPAZINE] | Compound metabolized
8 | C=CCN1CC[C@]23c4c5ccc(O)c4O[C@H]2C(=O)CC[C@@]3(O)[C@H]1C5 [NALOXONE] | Compound NOT metabolized
9 | CCN(CC)CC#CCOC(=O)C(O)(c1ccccc1)C1CCCCC1.Cl (stereo not given) [OXYBUTYNIN CHLORIDE] | Compound metabolized

test: (§1) The drug is tested on Z-007 corresponding to rat gut metagenome with ENA study accession number: PRJEB37062 and ENA sample accession number: ERS12561807 for biotransformation under anaerobic condition. The drug concentrations were measured over 9 timepoints collected between 0 and 24 hours of incubation by liquid-chromatography-coupled mass spectrometry (LC–MS); conditions: 2 µM

Row | SMILES | Bacterial Biotransformation
10 | CCN(CC)C(C)CN1c2ccccc2Sc2ccccc21 (stereo not given) [ETHOPROPAZINE] | Compound NOT metabolized
11 | C=CCN1CC[C@]23c4c5ccc(O)c4O[C@H]2C(=O)CC[C@@]3(O)[C@H]1C5 [NALOXONE] | Compound NOT metabolized
12 | CCN(CC)CC#CCOC(=O)C(O)(c1ccccc1)C1CCCCC1.Cl (stereo not given) [OXYBUTYNIN CHLORIDE] | Compound NOT metabolized

test: as §1, with “Z-005” for “Z-007”, “to” for “to rat gut”, “ERS12561805” for “ERS12561807”; conditions: 2 µM

Row | SMILES | Bacterial Biotransformation
13 | CCN(CC)C(C)CN1c2ccccc2Sc2ccccc21 (stereo not given) [ETHOPROPAZINE] | Compound metabolized
14 | C=CCN1CC[C@]23c4c5ccc(O)c4O[C@H]2C(=O)CC[C@@]3(O)[C@H]1C5 [NALOXONE] | Compound NOT metabolized
15 | CCN(CC)CC#CCOC(=O)C(O)(c1ccccc1)C1CCCCC1.Cl (stereo not given) [OXYBUTYNIN CHLORIDE] | Compound metabolized

conditions: human gut metagenome, 24 h, 2 µM; remark: another data set of the same source

Row | SMILES | Bacterial Biotransformation
16 | CCN(CC)C(C)CN1c2ccccc2Sc2ccccc21 (stereo not given) [ETHOPROPAZINE] | Compound metabolized
17 | C=CCN1CC[C@]23c4c5ccc(O)c4O[C@H]2C(=O)CC[C@@]3(O)[C@H]1C5 [NALOXONE] | Compound NOT metabolized
18 | CCN(CC)CC#CCOC(=O)C(O)(c1ccccc1)C1CCCCC1.Cl (stereo not given) [OXYBUTYNIN CHLORIDE] | Compound metabolized

conditions: human gut metagenome, 24 h, 2 µM; remark: another data set of the same source

Row | SMILES | Bacterial Biotransformation
19 | CCN(CC)C(C)CN1c2ccccc2Sc2ccccc21 (stereo not given) [ETHOPROPAZINE] | Compound metabolized
20 | C=CCN1CC[C@]23c4c5ccc(O)c4O[C@H]2C(=O)CC[C@@]3(O)[C@H]1C5 [NALOXONE] | Compound NOT metabolized
21 | CCN(CC)CC#CCOC(=O)C(O)(c1ccccc1)C1CCCCC1.Cl (stereo not given) [OXYBUTYNIN CHLORIDE] | Compound metabolized

conditions: human gut metagenome, 24 h, 2 µM; remark: another data set of the same source

Row | SMILES | Bacterial Biotransformation
22 | CCN(CC)C(C)CN1c2ccccc2Sc2ccccc21 (stereo not given) [ETHOPROPAZINE] | Compound metabolized
23 | C=CCN1CC[C@]23c4c5ccc(O)c4O[C@H]2C(=O)CC[C@@]3(O)[C@H]1C5 [NALOXONE] | Compound NOT metabolized
24 | CCN(CC)CC#CCOC(=O)C(O)(c1ccccc1)C1CCCCC1.Cl (stereo not given) [OXYBUTYNIN CHLORIDE] | Compound metabolized

conditions: human gut metagenome, 24 h, 2 µM; remark: another data set of the same source

Row | SMILES | Bacterial Biotransformation
25 | CCN(CC)C(C)CN1c2ccccc2Sc2ccccc21 (stereo not given) [ETHOPROPAZINE] | Compound metabolized
26 | C=CCN1CC[C@]23c4c5ccc(O)c4O[C@H]2C(=O)CC[C@@]3(O)[C@H]1C5 [NALOXONE] | Compound NOT metabolized
27 | CCN(CC)CC#CCOC(=O)C(O)(c1ccccc1)C1CCCCC1.Cl (stereo not given) [OXYBUTYNIN CHLORIDE] | Compound metabolized

test: as §1, with “Z-029” for “Z-007”, “ERS12561828” for “ERS12561807”; conditions: 2 µM

Row | SMILES | Bacterial Biotransformation
28 | CCN(CC)C(C)CN1c2ccccc2Sc2ccccc21 (stereo not given) [ETHOPROPAZINE] | Compound NOT metabolized
29 | C=CCN1CC[C@]23c4c5ccc(O)c4O[C@H]2C(=O)CC[C@@]3(O)[C@H]1C5 [NALOXONE] | Compound NOT metabolized
30 | CCN(CC)CC#CCOC(=O)C(O)(c1ccccc1)C1CCCCC1.Cl (stereo not given) [OXYBUTYNIN CHLORIDE] | Compound NOT metabolized

conditions: human gut metagenome, 24 h, 2 µM; remark: another data set of the same source

Row | SMILES | Bacterial Biotransformation
31 | CCN(CC)C(C)CN1c2ccccc2Sc2ccccc21 (stereo not given) [ETHOPROPAZINE] | Compound metabolized
32 | C=CCN1CC[C@]23c4c5ccc(O)c4O[C@H]2C(=O)CC[C@@]3(O)[C@H]1C5 [NALOXONE] | Compound NOT metabolized
33 | CCN(CC)CC#CCOC(=O)C(O)(c1ccccc1)C1CCCCC1.Cl (stereo not given) [OXYBUTYNIN CHLORIDE] | Compound metabolized

test: as §1, with “on WLS-240” for “on Z-007”, “to human” for “to rat”, “number: ERS12561773” for “number: ERS12561807”; conditions: 2 µM

Row | SMILES | Bacterial Biotransformation
34 | CCN(CC)C(C)CN1c2ccccc2Sc2ccccc21 (stereo not given) [ETHOPROPAZINE] | Compound metabolized
35 | C=CCN1CC[C@]23c4c5ccc(O)c4O[C@H]2C(=O)CC[C@@]3(O)[C@H]1C5 [NALOXONE] | Compound NOT metabolized
36 | CCN(CC)CC#CCOC(=O)C(O)(c1ccccc1)C1CCCCC1.Cl (stereo not given) [OXYBUTYNIN CHLORIDE] | Compound metabolized

test: as §1, with “on WLS-082” for “on Z-007”, “to human” for “to rat”, “number: ERS12561751” for “number: ERS12561807”; conditions: 2 µM

Row | SMILES | Bacterial Biotransformation
37 | CCN(CC)C(C)CN1c2ccccc2Sc2ccccc21 (stereo not given) [ETHOPROPAZINE] | Compound metabolized
38 | C=CCN1CC[C@]23c4c5ccc(O)c4O[C@H]2C(=O)CC[C@@]3(O)[C@H]1C5 [NALOXONE] | Compound NOT metabolized
39 | CCN(CC)CC#CCOC(=O)C(O)(c1ccccc1)C1CCCCC1.Cl (stereo not given) [OXYBUTYNIN CHLORIDE] | Compound metabolized

test: as §1, with “on WLS-350” for “on Z-007”, “to human” for “to rat”, “number: ERS12561789” for “number: ERS12561807”; conditions: 2 µM

Row | SMILES | Bacterial Biotransformation
40 | CCN(CC)C(C)CN1c2ccccc2Sc2ccccc21 (stereo not given) [ETHOPROPAZINE] | Compound metabolized
41 | C=CCN1CC[C@]23c4c5ccc(O)c4O[C@H]2C(=O)CC[C@@]3(O)[C@H]1C5 [NALOXONE] | Compound NOT metabolized
42 | CCN(CC)CC#CCOC(=O)C(O)(c1ccccc1)C1CCCCC1.Cl (stereo not given) [OXYBUTYNIN CHLORIDE] | Compound metabolized

conditions: human gut metagenome, 24 h, 2 µM; remark: another data set of the same source

Row | SMILES | Bacterial Biotransformation
43 | CCN(CC)C(C)CN1c2ccccc2Sc2ccccc21 (stereo not given) [ETHOPROPAZINE] | Compound metabolized
44 | C=CCN1CC[C@]23c4c5ccc(O)c4O[C@H]2C(=O)CC[C@@]3(O)[C@H]1C5 [NALOXONE] | Compound NOT metabolized
45 | CCN(CC)CC#CCOC(=O)C(O)(c1ccccc1)C1CCCCC1.Cl (stereo not given) [OXYBUTYNIN CHLORIDE] | Compound metabolized

conditions: human gut metagenome, 24 h, 2 µM; remark: another data set of the same source

Row | SMILES | Bacterial Biotransformation
46 | CCN(CC)C(C)CN1c2ccccc2Sc2ccccc21 (stereo not given) [ETHOPROPAZINE] | Compound metabolized
47 | C=CCN1CC[C@]23c4c5ccc(O)c4O[C@H]2C(=O)CC[C@@]3(O)[C@H]1C5 [NALOXONE] | Compound metabolized
48 | CCN(CC)CC#CCOC(=O)C(O)(c1ccccc1)C1CCCCC1.Cl (stereo not given) [OXYBUTYNIN CHLORIDE] | Compound metabolized

test: as §1, with “on Z-018” for “on Z-007”, “to pig” for “to rat”, “number: ERS12561817” for “number: ERS12561807”; conditions: 2 µM

Row | SMILES | Bacterial Biotransformation
49 | CCN(CC)C(C)CN1c2ccccc2Sc2ccccc21 (stereo not given) [ETHOPROPAZINE] | Compound metabolized
50 | C=CCN1CC[C@]23c4c5ccc(O)c4O[C@H]2C(=O)CC[C@@]3(O)[C@H]1C5 [NALOXONE] | Compound NOT metabolized
51 | CCN(CC)CC#CCOC(=O)C(O)(c1ccccc1)C1CCCCC1.Cl (stereo not given) [OXYBUTYNIN CHLORIDE] | Compound metabolized

test: as §1, with “on Z-003” for “on Z-007”, “to pig” for “to rat”, “number: ERS12561803” for “number: ERS12561807”; conditions: 2 µM

Row | SMILES | Bacterial Biotransformation
52 | CCN(CC)C(C)CN1c2ccccc2Sc2ccccc21 (stereo not given) [ETHOPROPAZINE] | Compound metabolized
53 | C=CCN1CC[C@]23c4c5ccc(O)c4O[C@H]2C(=O)CC[C@@]3(O)[C@H]1C5 [NALOXONE] | Compound metabolized
54 | CCN(CC)CC#CCOC(=O)C(O)(c1ccccc1)C1CCCCC1.Cl (stereo not given) [OXYBUTYNIN CHLORIDE] | Compound metabolized

conditions: human gut metagenome, 24 h, 2 µM; remark: another data set of the same source

Row | SMILES | Bacterial Biotransformation
55 | CCN(CC)C(C)CN1c2ccccc2Sc2ccccc21 (stereo not given) [ETHOPROPAZINE] | Compound metabolized
56 | C=CCN1CC[C@]23c4c5ccc(O)c4O[C@H]2C(=O)CC[C@@]3(O)[C@H]1C5 [NALOXONE] | Compound NOT metabolized
57 | CCN(CC)CC#CCOC(=O)C(O)(c1ccccc1)C1CCCCC1.Cl (stereo not given) [OXYBUTYNIN CHLORIDE] | Compound metabolized

test: as §1, with “Z-012” for “Z-007”, “to” for “to rat gut”, “ERS12561812” for “ERS12561807”; conditions: 2 µM

Row | SMILES | Bacterial Biotransformation
58 | CCN(CC)C(C)CN1c2ccccc2Sc2ccccc21 (stereo not given) [ETHOPROPAZINE] | Compound metabolized
59 | C=CCN1CC[C@]23c4c5ccc(O)c4O[C@H]2C(=O)CC[C@@]3(O)[C@H]1C5 [NALOXONE] | Compound NOT metabolized
60 | CCN(CC)CC#CCOC(=O)C(O)(c1ccccc1)C1CCCCC1.Cl (stereo not given) [OXYBUTYNIN CHLORIDE] | Compound metabolized
